In patent publication EP4755888A1 (ILAb Co., Ltd., priority 2023, dated 2025) one finds IC50 data, which are given here for 15 compounds.

Each structure is given as a SMILES string. A value given as a limit tells only on which side of the number the result lay.

The experiment deals with PD-1/PD-L1 (Homo sapiens, UniProt Q9NZQ7). As to the kind of experiment: TR-FRET PD-1/PD-L1 binding inhibition at the molecular level (free proteins). The conditions noted are these: Tag1-PD-L1 and Tag2-PD-1 proteins, twelve concentrations from 200 nM, 2 hours at room temperature, read-out: FRET assay (IC50). The procedure, abridged: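 HTRF read-out at 665/620 nm after 2 h at room temperature. Detection used anti-Tag1 Eu cryptate plus anti-Tag2 XL665 antibodies. Tagged PD-L1 and PD-1 proteins were pre-mixed with compound across twelve […] 1:2 dilutions starting at 200 nM.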
Sequence of PD-1/PD-L1 (Q9NZQ7 19-238 limits assumed): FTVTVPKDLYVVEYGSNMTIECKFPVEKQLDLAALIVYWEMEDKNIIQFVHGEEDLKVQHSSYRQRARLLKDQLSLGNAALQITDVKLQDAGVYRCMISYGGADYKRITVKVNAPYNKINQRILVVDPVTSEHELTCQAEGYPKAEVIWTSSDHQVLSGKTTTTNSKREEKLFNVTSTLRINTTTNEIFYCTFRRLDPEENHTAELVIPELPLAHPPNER
By IC50 is commonly meant the concentration that inhibits the measured activity by half. With `COc1cc(-c2cccc(-c3cccc(NC(=O)c4cc5n(n4)CCCC5NCC(=O)O)c3Cl)c2Cl)cc(F)c1CNCCO` (stereo not drawn) [Compound 186, 2-((2-((2,2'-dichloro-3"-fluoro-4"-(((2-hydroxyethyl)amino)methyl)-5"-methoxy-[1,1':3',1"-terphenyl]-3-yl)carbamoyl)-4,5,6,7-tetrahydropyrazolo[1,5-a]pyridin-4-yl)amino)acetic acid], the IC50 was under 0.01 µM.
In the case of `COc1cc(C(=O)Nc2cccc(-c3cccc(NC(=O)c4cc5n(n4)CCCC5N4CC[C@@H](C(=O)O)C4)c3Cl)c2Cl)cc(F)c1CN1CC[C@@H](O)C1` (stereo partly drawn) [Compound 196, (3R)-1-(2-((2,2'-dichloro-3'-(3-fluoro-4-(((R)-3-hydroxypyrrolidin-1-yl)methyl)-5-methoxybenzamido)-[1,1'-biphenyl]-3-yl)carbamoyl)-4,5,6,7-tetrahydropyrazolo[1,5-a]pyridin-4-yl)pyrrolidine-3-carboxylic acid], the IC50 was under 0.01 µM.
The figure for `COc1nc(-c2cccc(-c3cccc(-c4cc5n(n4)CCCC5N4CC[C@@H](C(=O)O)C4)c3C)c2C)cnc1CNC[C@@H]1CCC(=O)N1` (stereo partly drawn) [Compound 165, (3R)-1-(2-(3'-(6-methoxy-5-(((((S)-5-oxopyrrolidin-2-yl)methyl)amino)methyl)pyrazin-2-yl)-2,2'-dimethyl-[1,1'-biphenyl]-3-yl)-4,5,6,7-tetrahydropyrazolo[1,5-a]pyridin-4-yl)pyrrolidine-3-carboxylic acid] is under 0.01 µM; for `CC(=O)NCCNC1CCCn2nc(C(=O)Nc3cccc(-c4cccc(-c5nc6c(s5)CCN(C)C6)c4C)c3C)cc21` (stereo not drawn) [Compound 152, 4-((2-acetamidoethyl)amino)-N-(2,2'-dimethyl-3'-(5-methyl-4,5,6,7-tetrahydrothiazolo[4,5-c]pyridin-2-yl)-[1,1'-biphenyl]-3-yl)-4,5,6,7-tetrahydropyrazolo[1,5-a]pyridine-2-carboxamide] it is 0.01 to 0.1 µM.
On to `COc1cc(-c2cccc(-c3cccc(NC(=O)c4cc5n(n4)CCC[C@H]5NCC(=O)O)c3Cl)c2Cl)cc(F)c1CNC[C@@H]1CCC(=O)N1` [Compound 250, 2-(((R)-2-((2,2'-dichloro-3"-fluoro-5"-methoxy-4"-(((((S)-5-oxopyrrolidin-2-yl)methyl)amino)methyl)-[1,1':3',1 "-terphenyl]-3-yl)carbamoyl)-4,5,6,7-tetrahydropyrazolo[1,5-a]pyridin-4-yl)amino)acetic acid], for which the IC50 lay in the range of 0.01 to 0.1 µM.
To `O=C(Nc1cccc(-c2cccc(NC(=O)c3cc4n(n3)CCCC4N3CCC(O)CC3)c2Cl)c1Cl)c1ccc(CNCCO)cn1` (stereo not drawn) [Compound 87, N-(2,2'-dichloro-3'-(5-(((2-hydroxyethyl)amino)methyl)picolinamido)-[1,1'-biphenyl]-3-yl)-4-(4-hydroxypiperidin-1-yl)-4,5,6,7-tetrahydropyrazolo[1,5-a]pyridine-2-carboxamide] belongs 0.01 to 0.1 µM; to `O=C(Nc1cccc(-c2cccc(Nc3nccc4cc(CN5CC[C@@H](O)C5)cnc34)c2Cl)c1Cl)c1cc2n(n1)CCCC2N1CC[C@@H](O)C1` (stereo partly drawn) [Compound 25, N-(2,2'-dichloro-3'-((3-(((R)-3-hydroxypyrrolidin-1-yl)methyl)-1,7-naphthyridin-8-yl)amino)-[1,1'-biphenyl]-3-yl)-4-((R)-3-hydroxypyrrolidin-1-yl)-4,5,6,7-tetrahydropyrazolo[1,5-a]pyridine-2-carboxamide], 0.01 to 0.1 µM; to `O=C(O)CCCNC1CCCn2nc(C(=O)Nc3cccc(-c4cccc(Nc5nccc6cc(CN7CC[C@@H](O)C7)cnc56)c4Cl)c3Cl)cc21` (stereo partly drawn) [Compound 239, 4-((2-((2,2'-dichloro-3'-((3-(((R)-3-hydroxypyrrolidin-1-yl)methyl)-1,7-naphthyridin-8-yl)amino)-[1,1'-biphenyl]-3-yl)carbamoyl)-4,5,6,7-tetrahydropyrazolo[1,5-a]pyridin-4-yl)amino)butanoic acid], 0.01 to 0.1 µM.
To `COc1cc(C(=O)Nc2cccc(-c3cccc(NC(=O)c4cc5n(n4)CCCC5N4CC[C@@H](C(=O)O)C4)c3Cl)c2Cl)cc(F)c1CN1CC[C@@H](C(=O)O)C1` (stereo partly drawn) [Compound 197, (3R)-1-(4-((3'-(4-((R)-3-carboxypyrrolidin-1-yl)-4,5,6,7-tetrahydropyrazolo[1,5-a]pyridine-2-carboxamido)-2,2'-dichloro-[1,1'-biphenyl]-3-yl)carbamoyl)-2-fluoro-6-methoxybenzyl)pyrrolidine-3-carboxylic acid] belongs 0.01 to 0.1 µM; to `COc1cc(-c2cccc(-c3cccc(NC(=O)c4cc5n(n4)CCCC5O)c3C)c2C)cc(F)c1CNCCO` (stereo not drawn) [Compound 114, N-(3"-fluoro-4"-(((2-hydroxyethyl)amino)methyl)-5"-methoxy-2,2'-dimethyl-[1,1':3',1 "-terphenyl]-3-yl)-4-hydroxy-4,5,6,7-tetrahydropyrazolo[1,5-a]pyridine-2-carboxamide], under 0.01 µM; to `O=C(Nc1cccc(-c2cccc(Nc3nc(C(F)F)nc4cc(CN5CC[C@@H](O)C5)cnc34)c2Cl)c1Cl)c1cc2n(n1)CCC[C@@H]2N1CC(C(=O)O)C1` (stereo in doubt) [Compound 262, 1-((S)-2-((2,2'-dichloro-3'-((2-(difluoromethyl)-7-(((R)-3-hydroxypyrrolidin-1-yl)methyl)pyrido[3,2-d]pyrimidin-4-yl)amino)-[1,1'-biphenyl]-3-yl)carbamoyl)-4,5,6,7-tetrahydropyrazolo[1,5-a]pyridin-4-yl)azetidine-3-carboxylic acid], 0.01 to 0.1 µM.
For the compound `COc1cc(-c2cccc(-c3cccc(NC(=O)c4cc5n(n4)CCCC5NCC(=O)O)c3Cl)c2Cl)cc(F)c1CNC[C@@H]1CCC(=O)N1` (stereo partly drawn) [Compound 188, 2-((2-((2,2'-dichloro-3"-fluoro-5"-methoxy-4"-(((((S)-5-oxopyrrolidin-2-yl)methyl)amino)methyl)-[1,1':3',1"-terphenyl]-3-yl)carbamoyl)-4,5,6,7-tetrahydropyrazolo[1,5-a]pyridin-4-yl)amino)acetic acid], the IC50 is under 0.01 µM.
The figure for `Cc1c(NC(=O)c2ccc(CN3CC[C@@H](O)C3)cn2)cccc1-c1cccc(NC(=O)c2cc3n(n2)CCCC3N2CCC(C(=O)O)CC2)c1C` (stereo partly drawn) [Compound 98, 1-(2-((3'-(5-(((R)-3-hydroxypyrrolidin-1-yl)methyl)picolinamido)-2,2'-dimethyl-[1,1'-biphenyl]-3-yl)carbamoyl)-4,5,6,7-tetrahydropyrazolo[1,5-a]pyridin-4-yl)piperidine-4-carboxylic acid] is under 0.01 µM.
The figure for `Cc1c(NC(=O)c2ccc(CN3CC[C@@H](O)C3)cn2)cccc1-c1cccc(NC(=O)c2cc3n(n2)CCCC3N2CC[C@@H](C(=O)O)C2)c1C` (stereo partly drawn) [Compound 96, (3R)-1-(2-((3'-(5-(((R)-3-hydroxypyrrolidin-1-yl)methyl)picolinamido)-2,2'-dimethyl-[1,1'-biphenyl]-3-yl)carbamoyl)-4,5,6,7-tetrahydropyrazolo[1,5-a]pyridin-4-yl)pyrrolidine-3-carboxylic acid] is under 0.01 µM.
The figure for `Cc1c(NC(=O)c2ccc(CN3CC[C@@H](O)C3)cn2)cccc1-c1cccc(NC(=O)c2cc3n(n2)CCC[C@H]3N2CCCC[C@@H]2CO)c1C` [Compound 309-1, (R)-4-((R)-2-(hydroxymethyl)piperidin-1-yl)-N-(3'-(5-(((R)-3-hydroxypyrrolidin-1-yl)methyl)picolinamido)-2,2'-dimethyl-[1,1'-biphenyl]-3-yl)-4,5,6,7-tetrahydropyrazolo[1,5-a]pyridine-2-carboxamide] is 0.01 to 0.1 µM.
